Source: the NIST ThermoML archive (doi:10.1016/j.tca.2015.10.001)
Numbers after ± are expanded uncertainties.

Experiments:
[1] = Molar enthalpy of transition or fusion; conditions: Crystal; DSC
[2] = Crystal; DTA

SMILES: CCCCCCCCCCCCCCCCCC [octadecane]
- Molar enthalpy of transition or fusion [1]: 13.8 ± 0.86 kcal/mol
- Normal melting temperature [2]: 28.40 ± 4 °C
